Results from ChEMBL document CHEMBL1938294, “DNA binding and anticancer activity of naphthalimides with 4-hydroxyl-alkylamine side chains at different lengths” (Bioorg Med Chem Lett, 2012).
The source made the active and inactive calls. No cut-off for these calls is given here.

Legend:
Nucleic Acid [1] = assay: Binding affinity to calf thymus DNA by UV-Vis spectroscopy; format: nucleic-acid assay; settings: Bos taurus
Nucleic Acid [2] = assay: Binding affinity to calf thymus DNA assessed as bathochromic shift at 1 x 10^-5 M by UV-Vis spectroscopy; format: nucleic-acid assay; settings: Bos taurus
Nucleic Acid [3] = assay: Binding affinity to calf thymus DNA assessed as hypochromicity at 1 x 10^-5 M by UV-Vis spectroscopy; format: nucleic-acid assay; settings: Bos taurus
Nucleic Acid [4] = assay: Binding affinity to calf thymus DNA assessed as intercalation at 1 x 10^-5 M by fluorescence spectroscopy; format: nucleic-acid assay; settings: Bos taurus
Nucleic Acid [5] = assay: Binding affinity to calf thymus DNA assessed as efficiency of fluorescence enhancement at 1 x 10^-5 M by fluorescence spectroscopy; format: nucleic-acid assay; settings: Bos taurus
Nucleic Acid [6] = assay: Binding affinity to calf thymus DNA assessed as intercalation at 2 x 10^-5 M by CD spectroscopy; format: nucleic-acid assay; settings: Bos taurus
Nucleic Acid [7] = assay: Binding affinity to calf thymus DNA assessed as melting temperature at 5 x 10^-6 M by thermal denaturation assay (reference value: 68.4 degC); format: nucleic-acid assay; settings: Bos taurus
Nucleic Acid [8] = assay: Binding affinity to calf thymus DNA assessed as change in melting temperature at 5 x 10^-6 M by thermal denaturation assay; format: nucleic-acid assay; settings: Bos taurus
Bel-7402 = assay: Cytotoxicity against human Bel7402 cells by MTT assay; format: functional, cell-based
HL-60 = assay: Cytotoxicity against human HL60 cells by MTT assay; format: functional, cell-based

Row | SMILES | K (Nucleic Acid [1]) [×10⁴ /M] | Activity (Nucleic Acid [2]) [nm] | Activity (Nucleic Acid [3]) [%] | Activity (Nucleic Acid [4]) | KSV (Nucleic Acid [5]) [×10³ /M] | Activity (Nucleic Acid [6]) | Tm (Nucleic Acid [7]) [°C] | ΔTm (Nucleic Acid [8]) [°C] | IC50 (Bel-7402) [µM] | IC50 (HL-60) [µM]
1 | CN(C)CCN1C(=O)c2cccc3c(NCCCCCCO)ccc(c23)C1=O | 1.1 | 453 | 31 | Active | 7.12 | Active | 71.8 | 3.4 | 17.5 | 20.5
2 | CN(C)CCN1C(=O)c2cccc3c(NCCCCCO)ccc(c23)C1=O | 1.2 | 453 | 31 | Active | 4.36 | Active | 72.2 | 3.8 | 9.17 | 17.7
3 | CN(C)CCN1C(=O)c2cccc3c(NCCCO)ccc(c23)C1=O | 1.03 | 453 | 31 | Active | 4.03 | Active | 71.9 | 3.5 | 33.5 | 38.5
4 | CN(C)CCN1C(=O)c2cccc3c(NCCO)ccc(c23)C1=O | 1.44 | 447 | 31 | Active | 3.12 | Active | 71 | 2.6 | 30.9 | 25.9
5 | CN(C)CCN1C(=O)c2cccc3c(NCCCCO)ccc(c23)C1=O | 0.74 | 452 | 30 | Active | 1.15 | Active | 71.2 | 2.8 | 5.57 | 11.2
